The values below come from paper PMC7949139, “The molecular basis of OH-PCB estrogen receptor activation” (The Journal of Biological Chemistry, 2021).

Positions count from the first letter of the chain named.

Holding throughout (format): biochemical
In test [1] the target is T1, WT SULT1E1 (Homo sapiens, UniProt P49888).
T1 construct: E. coli codon-optimized SULT1E1 coding region inserted into the PreScission Protease cleavage site; His/GST/MBP triple tag (N, cleaved yes); made in house; host or cells: E. coli BL21(DE3)
T1 sequence (P49888 1-294): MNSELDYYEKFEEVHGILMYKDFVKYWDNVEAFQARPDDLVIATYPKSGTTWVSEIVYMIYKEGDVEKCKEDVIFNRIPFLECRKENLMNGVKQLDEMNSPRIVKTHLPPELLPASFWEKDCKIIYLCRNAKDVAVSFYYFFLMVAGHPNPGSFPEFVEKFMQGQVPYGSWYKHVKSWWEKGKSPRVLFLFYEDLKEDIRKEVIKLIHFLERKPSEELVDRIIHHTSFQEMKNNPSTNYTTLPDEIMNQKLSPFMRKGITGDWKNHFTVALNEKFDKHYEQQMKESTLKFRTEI
The test is described as follows: Initial-rate studies (1-HP sulfonation; OH-PCB inhibition), WT enzyme. As for the experimental part:
(§1) C. Reaction progress was monitored via the fluorescence change associated with 1-HP sulfonation (λex = 325 nm, λem = 370 nm ([51], [52])). Initial rates were measured during conversion to product of ≤5% of the concentration-limiting substrate consumed at the reaction endpoint. Velocities were determined in triplicate. Km and kcat were obtained by (1/v^4)-weighted least-squares fitting of the averaged data in double-reciprocal space (i.e., 1/v versus 1/[S]) ([66], [67]).
(§2) Inhibition studies were performed as described above except: 1-HP was fixed (2.0 μM, 100 × Km), OH-PCBs were added (0.20–20 × Ki), and SULT1E1 was 0.20 nM (active sites). Ki was determined by least-squares fitting to a noncompetitive inhibition model ([66], [67]).

In test [2] the target is T2, SULT1E1 F75A (Homo sapiens, UniProt P49888, F75A).
T2 construct: E. coli codon-optimized SULT1E1 coding region inserted into the PreScission Protease cleavage site; His/GST/MBP triple tag (N, cleaved yes); made in house; host or cells: E. coli BL21(DE3)
T2 sequence (P49888 1-294 F75A): T1 sequence (P49888 1-294) with F75A
The experiment in a line: Initial-rate studies (1-HP sulfonation; OH-PCB1 inhibition), F75A mutant. As for the experimental part: as §1, §2

Test [3] concerns the target T3, SULT1E1 F80A (Homo sapiens, UniProt P49888, F80A).
T3 construct: E. coli codon-optimized SULT1E1 coding region inserted into the PreScission Protease cleavage site; His/GST/MBP triple tag (N, cleaved yes); made in house; host or cells: E. coli BL21(DE3)
T3 sequence (P49888 1-294 F80A): T1 sequence (P49888 1-294) with F80A
The test is described as follows: Initial-rate studies (1-HP sulfonation; OH-PCB1 inhibition), F80A mutant. As for the experimental part: as §1, §2

For test [4], the target named is T4, spin-labeled SULT1E1, spin label attached at Cys residue 150 (C69S/N150C) (Homo sapiens, UniProt P49888, C69S/N150C).
T4 construct: E. coli codon-optimized SULT1E1 coding region inserted into the PreScission Protease cleavage site; His/GST/MBP triple tag (N, cleaved yes); made in house; host or cells: E. coli BL21(DE3)
T4 sequence (P49888 1-294 C69S/N150C): T1 sequence (P49888 1-294) with C69S, N150C
The experiment in a line: Initial-rate studies, spin-labeled construct (label at Cys 150). Conditions: spin label at Cys 150; parentheses = one SD; read-out: Ki OH-PCB1. As to the method:
Spin labels were attached to the SULT1E1 scaffold at Cys residues that were site-specifically incorporated via PCR-based mutagenesis. Prior to creating spin-label attachment constructs, reactive Cys was removed from the native scaffold. Only one of the four native SULT1E1 Cys (i.e., C69) reacts with DTNB ([39]), and mutagenic conversion of C69 to ser produced a stable, fully active non-DTNB-reactive scaffold. Five individual cys-attachment constructs were prepared from the C69S mutant (G16C, K25C, N150C, Q163C, and N233C). Mutants were labeled (see, Experimental procedures) and the initial rate parameters (kcat, Km and Ki) of each spin-labeled mutant were determined (see, Experimental procedures, Initial-Rate studies) to evaluate whether the catalytic integrity of the constructs had been compromised by the insertions and/or spin label attachments. […]
Labels (N-cyclohexylmale-imide or 3-maleimido-PROXYL) were added in 20-fold excess over reactive cysteine to a solution containing SULT1E1 construct (50 μM active sites), 0.50 mM PAP, and 50 mM KPO4 (pH 7.4), 25 °C ± 2 deg. […] The reactions were monitored by using DTNB to measure unreacted cysteine and were considered complete when >98% of the cysteine had reacted (∼3 h).
C. Reaction progress was monitored via the fluorescence change associated with 1-HP sulfonation (λex = 325 nm, λem = 370 nm ([51], [52])). […]

Setting [5] is: noncompetitive inhibition model, parentheses = one SD.

What is called Ki is a measure of affinity in units of concentration, obtained from inhibition or displacement. Consider `Oc1ccc(-c2c(Cl)cccc2Cl)cc1` [OH-PCB1, 4ʹ-OH-2,6-dichlorobiphenol], for which the results for the “Fold Effect = Ki OH-PCB1/Ki OH-PCB1 WT” value in test [1] (WT), in test [2] and in test [3] were 1.0, 11 and 12, respectively. In addition, the Ki turned out to be 60 nM in test [1] (WT SULT1E1, Table 1, parentheses = one SD, read-out: Ki OH-PCB1); 630 nM in test [2] (setting [5]); 730 nM in test [3] (setting [5]); 65 nM in test [4].
